US20240252546A1, “NEURITE OUTGROWTH PROMOTION KIT AND USE THEREFOR” (KEIO UNIVERSITY, priority 2021, published 2024)

Key:
[1] = test system: nerve cells induced from neurospheres derived from 201B7 cells; assay: Neurite outgrowth of nerve cells differentiated from γ-secretase inhibitor-treated neurospheres (Experimental Example 1); type: cell-based, human; conditions: for neurite outgrowth, Tau protein immunostaining / neurite outgrowth (length of the neurite), βIII-tubulin immunostaining: 201B7 neurospheres cultured 24 hours with inhibitor (10 μM DAPT, 1 μM Compound 34), differentiated 14 days; for neurite outgrowth (length of the neurite), βIII-tubulin immunostaining: vs control and other γ-secretase inhibitors
Excerpt: Various γ-secretase inhibitors were allowed to act on neurospheres derived from human iPS cells. Subsequently, each neurosphere was induced to differentiate into nerve cells, and the neurite outgrowth was examined. The following inhibitors were used as γ-secretase inhibitors: DAPT (CAS Number: 208255-80-5), Compound 34 (CAS Number: 564462-36-8), L-685,458 (CAS Number: 292632-98-5), LY411575 (CAS number: 209984-57-6), Sulindac (CAS number: 38194-50-2, which is also an anti-inflammatory drug), and Compound E (CAS number: 209986-17-4).
First, 201B7 cells, which are cells of a human iPS cell line, were differentiated into neurospheres. 3 μM SB431542 (Tocris Bioscience, catalog number: “301836-41-9”) and 150 nM LDN193189 (StemRD Inc., catalog number: “1062368-24-4”) were added to a culture medium of 201B7 cells, and the cells were treated for 6 days.
Subsequently, the cells were dissociated and seeded in a cell culture dish (product name: “ultralow-attachment culture dish”, Corning Incorporated) at a cell density of 1× 10^5 cells/mL in a nerve induction medium, and then cultured for 6 days in a hypoxic and moist environment (4% O2 and 5% CO2) to carry out differentiation into neurospheres.
The culture medium used as the nerve induction medium was a culture medium obtained by adding a 2% B27 supplement (without vitamin A, Thermo Fisher Scientific, Inc., catalog number: “17504-044”), 20 ng/ml of FGF2 (PeproTech, Inc.), 10 μM Y27632 (Sigma-Aldrich Co., LLC, catalog number: “146986-50-7”), 1 μM retinoic acid (RA, Sigma-Aldrich Co., LLC, catalog number: “R2625-1G”), 3 μM CHIR 99021 (ReproCELL Inc., catalog number: “04-0004”), and 10 μM SB431542 (Calbiochem, catalog number: “301836-41-9”), to an MHM medium of which the composition is shown in Table 1 below.
Subsequently, the formed neurospheres were dissociated into single cells, the single cells were passaged in a modified nerve induction medium and cultured for 6 days in a hypoxic environment (4% O2). The culture medium used as the modified nerve induction medium was a culture medium obtained by adding a 2% B27 supplement (without vitamin A, catalog number: “17504-044”, Thermo Fisher Scientific, Inc.), 20 ng/ml of FGF2 (PeproTech, Inc.), 10 μM Y27632 (catalog number: “146986-50-7”, Sigma-Aldrich Co., LLC), and 1 μM retinoic acid (RA, catalog number: “R2625-1G”, Sigma-Aldrich Co., LLC), to an MHM medium of which the composition is shown in Table 1 above.
Subsequently, neurospheres were cultured for 24 hours in the presence of each γ-secretase inhibitor. Each inhibitor was added to a culture medium of the neurosphere so that the final concentration was 10 μM for DAPT, 1 μM for Compound 34, 10 μM for L-685,458, 10 μM for LY411575, 10 μM for Sulindac, and 5 μM for Compound E. In addition, a control group cultured in the absence of a γ-secretase inhibitor was also prepared.
(§1) Subsequently, each neurosphere was seeded on a 48-well chamber slide (IWAKI & CO., LTD.) coated with poly-L-ornithine/fibronectin, cultured for 14 days in a culture medium containing no growth factor at 37° C. in an environment of 95% air and 5% CO2, and differentiated into nerve cells.
Subsequently, each of the obtained nerve cells was fixed with 4% paraformaldehyde in 0.1 M PBS, and each of βIII-tubulin, which is a nerve cell marker, and the Tau protein, which is frequently distributed in axons, was immunostained, and the length of the neurite was measured.
FIG. 2 is a graph in which the results of FIGS. 1(a) to 1(g) are quantified. […]

phosphorylated CDC25B = assay: Phosphorylated CDC25B in nerve cells after inducing differentiation (Experimental Example 12); type: cell-based, human; conditions: 201B7 neurospheres treated 24 hours, differentiated 14 days; compared with the untreated case
Method: Neurospheres were treated with DAPT or Compound 34, and the amount of phosphorylated CDC25B after inducing differentiation into nerve cells was examined.
Neurospheres derived from 201B7 cells, which are cells of a human iPS cell line, were prepared in the same manner as in Experimental Example 1. Subsequently, each neurosphere was cultured for 24 hours in the presence of each of DAPT and Compound 34. DAPT and Compound 34 were used at the same concentrations as in Experimental Example 1.
as §1
Subsequently, each of the obtained nerve cells was fixed with 4% paraformaldehyde and subjected to immunostaining of each of βIII-tubulin, which is a nerve cell marker, and phosphorylated CDC25B.
FIGS. 20(a) to 20(f) show fluorescence photomicrographs showing the representative results of immunostaining. The scale bar is 100 μm. […]

[2] = test system: nerve cells induced to differentiate from a neurosphere; conditions: nerve cells from a neurosphere on which DAPT has been allowed to act; cited from earlier work
[3] = test system: spinal cord injury in the chronic phase; conditions: DAPT used on a neurosphere, neurosphere then transplanted into the site of injury; cited from earlier work

Compound | neurite outgrowth, Tau protein immunostaining [1] | neurite outgrowth (length of the neurite), βIII-tubulin immunostaining [1] | amount of phosphorylated CDC25B after inducing differentiation into nerve cells (phosphorylated CDC25B) | neurite outgrowth [2] | phosphorylation of p38 MAPK [2] | treatment of spinal cord injury in the chronic phase [3] | concentration at which the neurite outgrowth-promoting effect is obtained ([1]; compared with DAPT)
C[C@H](NC(=O)Cc1cc(F)cc(F)c1)C(=O)N[C@H](C(=O)OC(C)(C)C)c1ccccc1 [DAPT] | particularly promoted | particularly promoted | increased | promoted | increased | can be treated | –
O=C1Nc2ccccc2C(c2ccccc2)=N[C@@H]1NC(=O)[C@H](c1ccc(F)cc1)[C@@H](CO)c1ccc(F)c(F)c1 [Compound 34] | particularly promoted | particularly promoted | increased | – | – | – | low concentration as compared with DAPT
